Tests used:
[1] = solubility in organic solvents relative to compound of formula I; assay type: physicochemical
Description: In Scheme III above, the compound of formula I may be contaminated with achiral dimer, (methylsulfonyl){2-[4-(4-{2-[(methylsulfonyl)amino]ethyl}phenyl)phenyl]ethyl}amine and chiral dimer, ((2R)-2-{4-[4-((1R)-1-methyl-2-{[(methylethyl)sulfonyl]amino}ethyl)phenyl]phenyl}propyl)[(methylethyl)sulfonyl]amine. […] However, the above achiral dimer is less soluble in organic solvents than the compound of formula I therefore, generally resisted removal from the compound of formula I by recrystallization.

water solubility = assay type: physicochemical

Compound | solubility in organic solvents compared with the compound of formula I [1] | water solubility (water solubility)
CS(=O)(=O)NCCc1ccc(-c2ccc(CCNS(C)(=O)=O)cc2)cc1 [achiral dimer, (methylsulfonyl){2-[4-(4-{2-[(methylsulfonyl)amino]ethyl}phenyl)phenyl]ethyl}amine] | less soluble | –
CC(C)S(=O)(=O)NC[C@H](C)c1ccc(-c2ccc([C@@H](C)CNS(=O)(=O)C(C)C)cc2)cc1 [chiral dimer, ((2R)-2-{4-[4-((1R)-1-methyl-2-{[(methylethyl)sulfonyl]amino}ethyl)phenyl]phenyl}propyl)[(methylethyl)sulfonyl]amine] | more soluble | –
CC(C)S(=O)(=O)NC[C@H](C)c1ccc(-c2ccc(CCNS(C)(=O)=O)cc2)cc1 [compound of formula I, {(2R)-2-[4-(4-{2-[(methylsulfonyl)amino]ethyl}phenyl)phenyl]propyl}[(methylethyl)sulfonyl]amine] | – | poor
